Data set [1] has as its system non-cancerous retinal epithelial ARPE-19 cells. Kind of data set: Cell viability (MTT) assay, ARPE-19. The note with it: 24 h incubation, n = 9, MTT; read-out: IC50 ± SD, ARPE-19. The class given is cell-based. As for the experimental part: (§1) The potential therapeutic activity of the copper pyrithione complexes was determined by screening complexes for 24 hours against human cancer cell lines MCF-7 (breast) and MIA PaCa-2 (pancreatic), alongside a non-cancerous epithelial cell line ARPE-19 (retinal). As controls, cisplatin and CuCl2·2H2O were also included in the screen (Table 2). […]
(§2) All cell lines were maintained as monolayers in either T75 or T175 flasks in complete high glucose DMEM media (supplemented with 10% Fetal Bovine Serum, 1% sodium pyruvate, 1% L-glutamine, 1% penstrep). All cell lines were seeded at 4000 cells/well in a clear-bottom 96-well plate and incubated for 24 h for cells to adhere. The cells were treated with varying concentrations of each complex and left to incubate for a further 24 h. MTT reagent (20 mL, 5 mg/mL) was added to each well, and the plates were incubated for 3 h. The media was removed by aspiration, followed by the addition of DMSO (150 mL) to solubilise the formazan. The absorbance was read using a Clariostar plate reader at 540 nm. Results were plotted on a logarithmic scale, and the half maximal inhibitory concentration (IC 50) was determined from a triplicate of triplicate repeats and reported as an IC 50 ± Standard Deviation (SD). […]

Data set [2] concerns breast cancer MCF-7 cells. Nature of the data set: Cell viability (MTT) assay, MCF-7. The class given is cell-based, human. Particulars: for IC50: 24 h incubation, n = 9, MTT, read-out: IC50 ± SD, MCF-7; for Selectivity index (SI) against MCF-7: IC50 against non-cancerous ARPE-19 cells divided by IC50 against MCF-7. As for the experimental part: as §1, §2
Data set [3] relates to pancreatic cancer MIA PaCa-2 cells. Kind of data set: Cell viability (MTT) assay, MIA PaCa-2. Format: cell-based, human. Particulars: for IC50: 24 h incubation, n = 9, MTT, read-out: IC50 ± SD, MIA PaCa-2. As for the experimental part: as §1, §2
For data set [4], the system named is MCF-7 cells. Nature of the data set: Reactive oxygen species study, H2DCFDA stain (Method 1). Format: cell-based, human. Particulars: complex at 10 μM for 1 h, H2DCFDA 20 μM for 30 min. From the text:
To understand a potential mechanism of action, we determined production of reactive oxygen species (ROS) using fluorescent microscopy assays. ROS production is a common mode of therapeutic activity of copper complexes.[43] […] In the presence of ROS, H2DCFDA converts to a fluorescent dye that can be observed using microscopy. […] By contrast, control cells with no pyrithione complex added show little fluorescence (Fig. 6A). […] (Fig. 6B), [Cu(6-Me-PT)2] (Fig. 6C), and [Cu(3-OMe-PT)2] […] (Fig. 6D) was weaker. This variation correlates well with the cytotoxicity data in Table 2, with the methyl and methoxy complexes also showing the highest activity.
Next, cells were dosed at two concentrations of pyrithione complex to determine whether production of ROS is dose-dependent. Results for [Cu(3-OMe-PT)2] are shown at 1 μM (Fig. 6E) and 10 μM (Fig. 6F) after 1 hour; results for other complexes are shown in the SI (Fig. S11 and 12). In all cases, the fluorescence intensity increases in assays with 10 μM complex, compared to assays with 1 μM complex, supporting a mode of action where increasing complex concentration leads to increased ROS generation and higher cytotoxicity. […]
absorbance and K = binding constant. […]
The cells were treated with varying
Results were plotted on a
Reactive oxygen species study:
Method 1: 2′,7′-dichlorodihydrofluorescein diacetate (H 2DCFDA) stain: […]
untreated sample (negative control). After this time, 2′,7′-dichlorodihydrofluorescein diacetate […]
Stock solutions of the compounds (5 mM) were made

A short description of data set [5]: Thermodynamic stability constant, Benesi-Hildebrand UV-vis titration. The class given is physicochemical. Particulars: Benesi-Hildebrand method, MeCN:H2O 1:1, absorbance at 320 nm. As for the experimental part: (§3) Where [M] is concentration of copper, [L] is concentration of the activated ligand, b is the pathlength, which was kept at 1 cm, ɛ is molar extinction coefficient of the complex, A is absorbance and K = binding constant.
All cell lines were maintained as monolayers in either T75 or T175 flasks in complete high glucose DMEM media (supplemented with 10% Fetal Bovine Serum, 1% sodium pyruvate, 1% L-glutamine, 1% penstrep). All cell lines were seeded at 4000 cells/well in a clear-bottom 96-well plate and incubated for 24 h for cells to adhere. The cells were treated with varying concentrations of each complex and left to incubate for a further 24 h. MTT reagent ([…], 5 mg/mL) was added to each well, and the plates were incubated for 3 h. The media was removed by aspiration, followed by the addition of DMSO ([…]) to solubilise the formazan. The absorbance was read using a Clariostar plate reader at 540 nm. Results were plotted on a logarithmic scale, and the half maximal inhibitory concentration (IC 50) was determined from a triplicate of triplicate repeats and reported as an IC 50 ± Standard Deviation (SD).

In data set [6] the test system is U266 (myeloma) cancer cell line. The note with it: cited from earlier work.
In data set [7] the test system is MCF-7 (breast) cancer cell line. The note with it: cited from earlier work.
Data set [8] concerns MCF-7 cells. Particulars: dosed, fixed. As for the experimental part:
as §3
as §2, with “MTT reagent (20 mL, 5 mg/mL) was added to each well, and the plates were incubated for 3 h. The media was removed by aspiration, followed by the addition of DMSO (150 mL) to solubilise the formazan.” left out
MCF-7 cells were seeded into a black 96 well optical bottom plate at 8000 cells/well in phenol-red free complete DMEM medium (100 μl), and incubated at 37 °C and 5% CO 2 for 24 h. […] Cells were gently washed with PBS (2 x 100 µl), and 100 µl of PBS was added to each well before reading.
Fluorescence images were obtained using Zeiss Axio Observer 7 inverted microscope at excitation at 488 nm and emission at 509 nm, and analysed using ZEN 3.8 software. […]

The nature of data set [9]: Solubility by observation. Particulars: aqueous and organic solvents, qualitative.
The test system of data set [10] is HepG2 (liver) cancer cell line. Particulars: cited from earlier work.
For data set [11], the system named is NCI-H929 (myeloma) cancer cell line. The note with it: cited from earlier work.
Data set [12] in a line: Lipophilicity, octanol:water shake-flask method with ICP-OES copper quantification. Particulars: copper by ICP-OES, triplicate.
Method: Due to the low aqueous solubility of [Cu(PT)2], inductively coupled plasma-optical emission spectroscopy (ICP-OES) was used to quantify copper in the octanol and water layers (see SI).
General procedure for logP measurement:
Stock solutions (10 mM) of the tested copper complexes were prepared in DMSO solvent.
Water and octanol were saturated with the other solvent to match the final shake-flask
conditions. Next, log P values were determined using the shake-flask method. For each
complex, 60 µl of the stock solution was added to a mixture of 3 ml water and 3 ml n-octanol.
The solution was shaken by hand and vortexed. The layers were separated and analysed by
inductively coupled plasma optical emission spectroscopy (ICP-OES). For the octanol layer,
100 µl was collected in a vial and the solvent was evaporated under high vacuum. Next, the
residue was dissolved in 100 µl methanol and further diluted with 10 ml of 5% aqueous nitric
acid (HNO 3) solution for digestion. For the water layer, 1 ml of solution was diluted with 9 ml
of 5% aqueous HNO 3 solution. After analysis through ICP-OES technique, the amount of
copper in each sample was determined in ppm. To remove background copper, the exact
conditions were repeated in the absence of copper pyrithione complexes and the values were
subtracted from the measured values. The partition coefficient (P) and respective logP values

With `Cc1cc[n+]([O-])c([S][Cu][S]c2cc(C)cc[n+]2[O-])c1` [[Cu(4-Me-PT)2]], the figures for the IC50 in data set [1], in data set [2] and in [3] were 1800 ± 100 nM, 690 ± 20 nM and 8500 ± 300 nM, respectively.

For `COc1ccc[n+]([O-])c1[S][Cu][S]c1c(OC)ccc[n+]1[O-]` [[Cu(3-OMe-PT)2]], the results for the IC50 in [1], in data set [2] and in [3] were 870 ± 40 nM, 220 ± 10 nM and 2700 ± 100 nM, respectively. The “ROS production, H2DCFDA fluorescence” value in data set [4] is “brightest fluorescence”. In addition, the “Selectivity index (SI) against MCF-7” value in data set [2] is 3.95. In addition, the “Log(K/(M^−2))” value in data set [5] came to 7.560 ± 0.002.

For the molecule `Cc1cccc([S][Cu][S]c2cccc(C)[n+]2[O-])[n+]1[O-]` [[Cu(6-Me-PT)2]], the IC50 is 570 ± 30 nM in data set [1], 570 ± 10 nM in data set [2] and 2100 ± 100 nM in data set [3]. For the same molecule, the “ROS production, H2DCFDA fluorescence” value in data set [4] is on record as “brightest fluorescence”. Besides, the “Log(K/(M^−2))” value in [5] was determined as 7.498 ± 0.005.

In the case of `N.N.[Cl][Pt][Cl]` [Cisplatin, reference compound], the IC50 is 13000 ± 100 nM in data set [1], 40000 ± 1000 nM in data set [2] and above 100000 nM in data set [3]. For the same molecule, in data set [3] (IC50 against non-cancerous ARPE-19 cells divided by IC50 against MIA PaCa-2), the “Selectivity index (SI) against MIA PaCa-2” value is below 0.13.

As for `[Cu+2].[O-]n1ccc(C(F)(F)F)cc1=S.[O-]n1ccc(C(F)(F)F)cc1=S` [[Cu(4-CF3-PT)2]], the IC50 in data set [1] was 17300 ± 400 nM; in [2], 8900 ± 300 nM; in data set [3], 21600 ± 400 nM.

With `On1ccccc1=S.On1ccccc1=S.[Cu]` [[Cu(PT)2], copper pyrithione], in data set [6], the “IC50 against U266” value is reported as “submicromolar”. Besides, the IC50 in [1] was found to be 410 ± 50 nM; in data set [2] it was 270 ± 10 nM; in [3], 2220 ± 80 nM. The “IC50 against MCF-7” value in data set [7] is “submicromolar”. In addition, the “ROS levels compared to menadione, CellROX stain” value in data set [8] is reported as “lower levels of ROS”. The “ROS production, H2DCFDA fluorescence” value in data set [4] was “brightest fluorescence”. In addition, in [9], the “Solubility (by observation)” value was “low solubility”. The “IC50 against HepG2” value in data set [10] is recorded as “submicromolar”. Moreover, in data set [11], the “IC50 against NCI-H929” value is given as “submicromolar”. The “Log(K/(M^−2))” value in data set [5] worked out at 7.528 ± 0.004. Moreover, the “Log P” value in data set [12] was 2.34.

For `[Cl][Cu][Cl]` [CuCl2·2H2O, reference compound], the results for the half-maximal inhibitory concentration (IC50) in data set [1], in [2] and in data set [3] were 83000 ± 2000 nM, above 100000 nM and above 100000 nM, respectively.

For the molecule `Cc1cccn([O-])c1=S.Cc1cccn([O-])c1=S.[Cu+2]` [[Cu(3-Me-PT)2]], the IC50 was determined as 2200 ± 100 nM in data set [1], 347 ± 6 nM in [2] and 7100 ± 200 nM in [3]. Besides, the “Selectivity index (SI) against MCF-7” value in data set [2] came to 6.34.

Values taken from PMC12519996, “Copper pyrithione complexes with endoplasmic reticulum localisation showing anticancer activity via ROS generation” (Chemical Science, 2025).
